Experiments:
Format in all cases: in vivo
[1] = tested on: field corn (Zea mays L., var. Dekalb 535, CORN); test: Post-emerge test, crop safety; details: rating scale 0-100 (0 no damage, 100 complete death), 14 days after application
Procedure, shortened: (§1)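 Applied at 15–1000 g ai/ha from acetone in 187 l/ha spray volume. Post-emergence applications included 0.25% v/v non-ionic surfactant and reached plants sown 8–21 days before. Pre-emergence applications were incorporated by surface watering. Efficacy or crop damage was rated on a 0–100 scale after 14 days.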

[2] = tested on: upland rice (Oryza sp., var. Tebonnet, RICE); test: Post-emerge test, crop safety; details: rating scale 0-100 (0 no damage, 100 complete death), 14 days after application
Procedure, shortened: as §1

[3] = tested on: field corn (Zea mays L., var. Dekalb 535, CORN); test: Pre-emerge test, crop safety; details: rating scale 0-100, 14 days after application
Procedure, shortened: (§2)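 Compounds in acetone were track-sprayed at 15-1000 g ai/ha (187 l/ha) on sandy loam pots: pre-emerge one day after seeding, post-emerge at 2-3 leaf stage with 0.25% v/v non-ionic surfactant. Phytotoxicity was rated 14 days later on a 0 (no damage) to 100 (complete death) scale.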

[4] = tested on: upland rice (Oryza sp., var. Tebonnet, RICE); test: Pre-emerge test, crop safety; details: rating scale 0-100, 14 days after application
Procedure, shortened: as §2

[5] = tested on: redroot pigweed (Amaranthus retroflexus, AMARE); test: Pre-emerge test, greenhouse herbicide activity screening; details: rating scale 0-100, 14 days after application
Procedure, shortened: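 Visual ratings on a 0-100 scale (0 no damage, 100 all plants dead) were taken at 14 days after treatment. Rates of 15-1000 g ai/ha in acetone, 187 l/ha, were sprayed onto soil one day after planting (pre-emerge) or onto 2-3 leaf plants with 0.25% v/v surfactant (post-emerge).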

[6] = tested on: ivyleaf morningglory (Ipomoea hederacea, IPOHE); test: Post-emerge test, greenhouse herbicide activity screening; details: rating scale 0-100 (0 no damage, 100 complete death), 14 days after application
Procedure, shortened: (§3)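 Compounds in acetone were track-sprayed at 187 l/ha, 15–1000 g ai/ha, onto sandy loam pots. Pre-emerge seeds were sown one day before spraying, with surface watering afterwards. Post-emerge plants were at the 2–3 leaf stage and sprayed with 0.25% v/v non-ionic surfactant. Injury was rated 0–100 at 14 days.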

[7] = tested on: velvetleaf (Abutilon theophrasti, ABUTH); test: as above; details: rating scale 0-100 (0 no damage, 100 complete death), 14 days after application
Procedure, shortened: as §3

[8] = tested on: barnyardgrass (Echinochloa crus-galli, ECHCG); test: as above; details: rating scale 0-100 (0 no damage, 100 complete death), 14 days after application
Procedure, shortened: as §3

[9] = tested on: sicklepod (Cassia obtusifolia, CASOB); test: as above; details: rating scale 0-100 (0 no damage, 100 complete death), 14 days after application
Procedure, shortened: as §3

[10] = tested on: redroot pigweed (Amaranthus retroflexus, AMARE); test: as above; details: rating scale 0-100 (0 no damage, 100 complete death), 14 days after application
Procedure, shortened: as §3

[11] = tested on: lambsquarters (Chenopodium album, CHEAL); test: as above; details: rating scale 0-100 (0 no damage, 100 complete death), 14 days after application
Procedure, shortened: as §3

[12] = tested on: johnsongrass (Sorghum halepense, SORHA); test: as above; details: rating scale 0-100 (0 no damage, 100 complete death), 14 days after application
Procedure, shortened: as §3

[13] = tested on: large crabgrass (Digitaria sanguinalis, DIGSA); test: as above; details: rating scale 0-100 (0 no damage, 100 complete death), 14 days after application
Procedure, shortened: as §3

[14] = tested on: green foxtail (Setaria viridis, SETVI); test: as above; details: rating scale 0-100 (0 no damage, 100 complete death), 14 days after application
Procedure, shortened: as §3

[15] = tested on: ivyleaf morningglory (Ipomoea hederacea, IPOHE); test: Pre-emerge test, greenhouse herbicide activity screening; details: rating scale 0-100, 14 days after application
Procedure, shortened: as §1

[16] = tested on: velvetleaf (Abutilon theophrasti, ABUTH); test: as above; details: rating scale 0-100, 14 days after application
Procedure, shortened: as §1

[17] = tested on: barnyardgrass (Echinochloa crus-galli, ECHCG); test: as above; details: rating scale 0-100, 14 days after application
Procedure, shortened: as §1

[18] = tested on: sicklepod (Cassia obtusifolia, CASOB); test: as above; details: rating scale 0-100, 14 days after application
Procedure, shortened: as §1

[19] = tested on: lambsquarters (Chenopodium album, CHEAL); test: as above; details: rating scale 0-100, 14 days after application
Procedure, shortened: as §1

[20] = tested on: johnsongrass (Sorghum halepense, SORHA); test: as above; details: rating scale 0-100, 14 days after application
Procedure, shortened: as §1

[21] = tested on: large crabgrass (Digitaria sanguinalis, DIGSA); test: as above; details: rating scale 0-100, 14 days after application
Procedure, shortened: as §1

[22] = tested on: green foxtail (Setaria viridis, SETVI); test: as above; details: rating scale 0-100, 14 days after application
Procedure, shortened: as §1

SMILES: C#CCOC(=O)C(Cl)Cc1c(OC)c(Cl)cc(F)c1-n1c(=O)cc(C(F)(F)F)n(C)c1=O (single isomer, unassigned) [14-20]
- Post-emerge phytotoxicity rating CORN (crop damage) ([1]; Rate 63 g ai/ha): 0
- Post-emerge phytotoxicity rating CORN (crop damage) ([1]; Rate 250 g ai/ha): 80
- Post-emerge phytotoxicity rating RICE (crop damage) ([2]; Rate 63 g ai/ha): 0
- Post-emerge phytotoxicity rating RICE (crop damage) ([2]; Rate 250 g ai/ha): 10
- Pre-emerge phytotoxicity rating, crop damage CORN ([3]; 63 g ai/ha): 0
- Pre-emerge phytotoxicity rating, crop damage CORN ([3]; 250 g ai/ha): 50
- Pre-emerge phytotoxicity rating, crop damage RICE ([4]; 63 g ai/ha): 0
- Pre-emerge phytotoxicity rating, crop damage RICE ([4]; 250 g ai/ha): 0
- Pre-emerge herbicidal activity, phytotoxicity rating AMARE ([5]; 63 g ai/ha): 50
- Pre-emerge herbicidal activity, phytotoxicity rating AMARE ([5]; 250 g ai/ha): 100
- Post-emerge Herbicidal Activity, phytotoxicity rating IPOHE ([6]; Rate 63 g ai/ha): 50
- Post-emerge Herbicidal Activity, phytotoxicity rating IPOHE ([6]; Rate 250 g ai/ha): 70
- Post-emerge Herbicidal Activity, phytotoxicity rating ABUTH ([7]; Rate 63 g ai/ha): 99
- Post-emerge Herbicidal Activity, phytotoxicity rating ABUTH ([7]; Rate 250 g ai/ha): 100
- Post-emerge Herbicidal Activity, phytotoxicity rating ECHCG ([8]; Rate 63 g ai/ha): 100
- Post-emerge Herbicidal Activity, phytotoxicity rating ECHCG ([8]; Rate 250 g ai/ha): 100
- Post-emerge Herbicidal Activity, phytotoxicity rating CASOB ([9]; Rate 63 g ai/ha): 0
- Post-emerge Herbicidal Activity, phytotoxicity rating CASOB ([9]; Rate 250 g ai/ha): 50
- Post-emerge Herbicidal Activity, phytotoxicity rating AMARE ([10]; Rate 63 g ai/ha): 95
- Post-emerge Herbicidal Activity, phytotoxicity rating AMARE ([10]; Rate 250 g ai/ha): 100
- Post-emerge Herbicidal Activity, phytotoxicity rating CHEAL ([11]; Rate 63 g ai/ha): 80
- Post-emerge Herbicidal Activity, phytotoxicity rating CHEAL ([11]; Rate 250 g ai/ha): 100
- Post-emerge Herbicidal Activity, phytotoxicity rating SORHA ([12]; Rate 63 g ai/ha): 10
- Post-emerge Herbicidal Activity, phytotoxicity rating SORHA ([12]; Rate 250 g ai/ha): 90
- Post-emerge Herbicidal Activity, phytotoxicity rating DIGSA ([13]; Rate 63 g ai/ha): 100
- Post-emerge Herbicidal Activity, phytotoxicity rating DIGSA ([13]; Rate 250 g ai/ha): 100
- Post-emerge Herbicidal Activity, phytotoxicity rating SETVI ([14]; Rate 63 g ai/ha): 0
- Post-emerge Herbicidal Activity, phytotoxicity rating SETVI ([14]; Rate 250 g ai/ha): 50
- Pre-emerge herbicidal activity, phytotoxicity rating IPOHE ([15]; 63 g ai/ha): 0
- Pre-emerge herbicidal activity, phytotoxicity rating IPOHE ([15]; 250 g ai/ha): 0
- Pre-emerge herbicidal activity, phytotoxicity rating ABUTH ([16]; 63 g ai/ha): 0
- Pre-emerge herbicidal activity, phytotoxicity rating ABUTH ([16]; 250 g ai/ha): 90
- Pre-emerge herbicidal activity, phytotoxicity rating ECHCG ([17]; 63 g ai/ha): 0
- Pre-emerge herbicidal activity, phytotoxicity rating ECHCG ([17]; 250 g ai/ha): 40
- Pre-emerge herbicidal activity, phytotoxicity rating CASOB ([18]; 63 g ai/ha): 0
- Pre-emerge herbicidal activity, phytotoxicity rating CASOB ([18]; 250 g ai/ha): 0
- Pre-emerge herbicidal activity, phytotoxicity rating CHEAL ([19]; 63 g ai/ha): 0
- Pre-emerge herbicidal activity, phytotoxicity rating CHEAL ([19]; 250 g ai/ha): 80
- Pre-emerge herbicidal activity, phytotoxicity rating SORHA ([20]; 63 g ai/ha): 0
- Pre-emerge herbicidal activity, phytotoxicity rating SORHA ([20]; 250 g ai/ha): 20
- Pre-emerge herbicidal activity, phytotoxicity rating DIGSA ([21]; 63 g ai/ha): 0
- Pre-emerge herbicidal activity, phytotoxicity rating DIGSA ([21]; 250 g ai/ha): 90
- Pre-emerge herbicidal activity, phytotoxicity rating SETVI ([22]; 63 g ai/ha): 0
- Pre-emerge herbicidal activity, phytotoxicity rating SETVI ([22]; 250 g ai/ha): 30

SMILES: COc1c(Cl)cc(F)c(-n2c(=O)cc(C(F)(F)F)n(C)c2=O)c1CC(Cl)C(=O)OCCOc1ccccc1 (single isomer, unassigned) [14-27]
- Post-emerge phytotoxicity rating CORN (crop damage) ([1]; Rate 63 g ai/ha): 5
- Post-emerge phytotoxicity rating CORN (crop damage) ([1]; Rate 250 g ai/ha): 10
- Post-emerge phytotoxicity rating RICE (crop damage) ([2]; Rate 63 g ai/ha): 0
- Post-emerge phytotoxicity rating RICE (crop damage) ([2]; Rate 250 g ai/ha): 0
- Pre-emerge phytotoxicity rating, crop damage CORN ([3]; 63 g ai/ha): 0
- Pre-emerge phytotoxicity rating, crop damage CORN ([3]; 250 g ai/ha): 0
- Pre-emerge phytotoxicity rating, crop damage RICE ([4]; 63 g ai/ha): 0
- Pre-emerge phytotoxicity rating, crop damage RICE ([4]; 250 g ai/ha): 0
- Pre-emerge herbicidal activity, phytotoxicity rating AMARE ([5]; 63 g ai/ha): 50
- Pre-emerge herbicidal activity, phytotoxicity rating AMARE ([5]; 250 g ai/ha): 100
- Post-emerge Herbicidal Activity, phytotoxicity rating IPOHE ([6]; Rate 63 g ai/ha): 70
- Post-emerge Herbicidal Activity, phytotoxicity rating IPOHE ([6]; Rate 250 g ai/ha): 50
- Post-emerge Herbicidal Activity, phytotoxicity rating ABUTH ([7]; Rate 63 g ai/ha): 70
- Post-emerge Herbicidal Activity, phytotoxicity rating ABUTH ([7]; Rate 250 g ai/ha): 80
- Post-emerge Herbicidal Activity, phytotoxicity rating ECHCG ([8]; Rate 63 g ai/ha): 99
- Post-emerge Herbicidal Activity, phytotoxicity rating ECHCG ([8]; Rate 250 g ai/ha): 100
- Post-emerge Herbicidal Activity, phytotoxicity rating CASOB ([9]; Rate 63 g ai/ha): 50
- Post-emerge Herbicidal Activity, phytotoxicity rating CASOB ([9]; Rate 250 g ai/ha): 30
- Post-emerge Herbicidal Activity, phytotoxicity rating AMARE ([10]; Rate 63 g ai/ha): 50
- Post-emerge Herbicidal Activity, phytotoxicity rating AMARE ([10]; Rate 250 g ai/ha): 90
- Post-emerge Herbicidal Activity, phytotoxicity rating CHEAL ([11]; Rate 63 g ai/ha): 90
- Post-emerge Herbicidal Activity, phytotoxicity rating CHEAL ([11]; Rate 250 g ai/ha): 100
- Post-emerge Herbicidal Activity, phytotoxicity rating SORHA ([12]; Rate 63 g ai/ha): 0
- Post-emerge Herbicidal Activity, phytotoxicity rating SORHA ([12]; Rate 250 g ai/ha): 10
- Post-emerge Herbicidal Activity, phytotoxicity rating DIGSA ([13]; Rate 63 g ai/ha): 70
- Post-emerge Herbicidal Activity, phytotoxicity rating DIGSA ([13]; Rate 250 g ai/ha): 95
- Post-emerge Herbicidal Activity, phytotoxicity rating SETVI ([14]; Rate 63 g ai/ha): 0
- Post-emerge Herbicidal Activity, phytotoxicity rating SETVI ([14]; Rate 250 g ai/ha): 20
- Pre-emerge herbicidal activity, phytotoxicity rating IPOHE ([15]; 63 g ai/ha): 0
- Pre-emerge herbicidal activity, phytotoxicity rating IPOHE ([15]; 250 g ai/ha): 0
- Pre-emerge herbicidal activity, phytotoxicity rating ABUTH ([16]; 63 g ai/ha): 0
- Pre-emerge herbicidal activity, phytotoxicity rating ABUTH ([16]; 250 g ai/ha): 30
- Pre-emerge herbicidal activity, phytotoxicity rating ECHCG ([17]; 63 g ai/ha): 0
- Pre-emerge herbicidal activity, phytotoxicity rating ECHCG ([17]; 250 g ai/ha): 0
- Pre-emerge herbicidal activity, phytotoxicity rating CASOB ([18]; 63 g ai/ha): 0
- Pre-emerge herbicidal activity, phytotoxicity rating CASOB ([18]; 250 g ai/ha): 0
- Pre-emerge herbicidal activity, phytotoxicity rating CHEAL ([19]; 63 g ai/ha): 0
- Pre-emerge herbicidal activity, phytotoxicity rating CHEAL ([19]; 250 g ai/ha): 90
- Pre-emerge herbicidal activity, phytotoxicity rating SORHA ([20]; 63 g ai/ha): 0
- Pre-emerge herbicidal activity, phytotoxicity rating SORHA ([20]; 250 g ai/ha): 0
- Pre-emerge herbicidal activity, phytotoxicity rating DIGSA ([21]; 63 g ai/ha): 0
- Pre-emerge herbicidal activity, phytotoxicity rating DIGSA ([21]; 250 g ai/ha): 90
- Pre-emerge herbicidal activity, phytotoxicity rating SETVI ([22]; 63 g ai/ha): 0
- Pre-emerge herbicidal activity, phytotoxicity rating SETVI ([22]; 250 g ai/ha): 0
